Results from US20230048888A1, “USE OF TRIAZOLOTRIAZINE DERIVATIVE IN TREATMENT OF DISEASES” (ZHEJIANG VIMGREEN PHARMACEUTICALS, LTD., priority 2019, published 2023).
Read-outs that look alike come from different tables or passages of the source.

Assay: Pharmacokinetics of acetate of Compound 22 in SD rats with single and repeated administration
Type: in vivo
Conditions: for clearance / Vd / AUC(0-t) / half-life / bioavailability / Cmax / C0 / Tmax: rat, plasma; for Tmax: read-out: Tmax (median)
Description: The formulation for Group 5 was prepared before administration on Day 1, and then, divided into daily doses and stored at 5±3° C. After taking out the formulations on the day of administration, the formulations should be let stand at room temperature for at least 30 minutes before administration.
After blood collection, the blood collection tube containing the anticoagulant was turned upside down several times to mix well, and placed on wet ice before centrifugation. Within 60 minutes after blood collection, the samples were centrifuged at 2000 g for 10 minutes at 2-8° C. to separate red blood cells, thereby obtaining plasma samples. The plasma samples were transferred to cryovials and stored at −75±15° C. until analysis.
Blood samples were collected from SD rats at room temperature before administration and within 24 hours after administration. All collected samples were placed on wet ice before centrifugation and stored at −75±15° C. until analysis.
The mass spectrometer was Applied Biosystems/AB Sciex Triple Quad 4500.
Pharmacokinetic data was calculated using the linear logarithmic trapezoidal method, with a weight of 1/(Y*Y). Samples with the sample concentration below the lower limit of quantification were excluded from the calculation of pharmacokinetic parameters. […] The mean time to peak (Tmax) was represented as a median.

For `CC(=O)O.Nc1nc(NCCc2ccc(NC3COC3)cc2)nc2nc(-c3ccco3)nn12` [Acetate of Compound 22, 2-(furan-2-yl)-N5-(4-(oxetane-3-ylamino)phenethyl)-[1,2,4]triazolo[1,5-a][1,3,5]triazine-5,7-diamine acetate], the “exposure ratio between Day 7 and Day 1” value (63 mg/kg daily for 7 consecutive days) was “less than 2”, the F (Group 2 PO 21 mg/kg single, Female) was 70.8 ± 6.75% and the F (Group 2 PO 21 mg/kg single, Male) was 82.2 ± 20.6%. It also gave an F (Group 2 PO 21 mg/kg single, Overall) of 76.5 ± 15.1%, an F (Group 3 PO 63 mg/kg single, Female) of 74.1 ± 21.9% and an F (Group 3 PO 63 mg/kg single, Male) of 56.9 ± 1.98%. The F (Group 3 PO 63 mg/kg single, Overall) was 65.5 ± 16.8%, the F (Group 4 PO 189 mg/kg single, Female) was 44.9 ± 10.1% and the F (Group 4 PO 189 mg/kg single, Male) was 50.9 ± 5.28%. The F (Group 4 PO 189 mg/kg single, Overall) was 47.9 ± 7.91%, the F (Group 5 PO 63 mg/kg repeated, Day 1, Female) was 77.0 ± 12.5% and the F (Group 5 PO 63 mg/kg repeated, Day 1, Male) was 51.9 ± 20.5%. For the same molecule, the F (Group 5 PO 63 mg/kg repeated, Day 1, Overall) was 64.5 ± 20.5%, the clearance (Sprague-Dawley (SD), intravenous injection 2.0 mg/kg, read-out: clearance rate (CL)) was 6.02 mL/min/kg and the Vd (Sprague-Dawley (SD), intravenous injection 2.0 mg/kg, read-out: steady-state apparent volume of distribution (Vss)) was 0.457 L/kg. The AUC(0-t) (Sprague-Dawley (SD), iv, 2 mg/kg, intravenous injection 2.0 mg/kg, read-out: drug exposure AUC0-t) was 5.36 µg·h/mL, the half-life (Sprague-Dawley (SD), iv, 2 mg/kg, intravenous injection 2.0 mg/kg, read-out: half-life T1/2 (converted)) was 3.39 h and the bioavailability (Sprague-Dawley (SD), oral 21 mg/kg) was 76.5%. For the same molecule, the bioavailability (Sprague-Dawley (SD), oral 63 mg/kg) was 65.5%, the bioavailability (Sprague-Dawley (SD), oral 189 mg/kg) was 47.9% and the AUC(0-t) (Sprague-Dawley (SD), oral, 63 mg/kg, 63 mg/kg daily for 7 consecutive days, Day 1, read-out: AUC0-t) was 111 µg·h/mL. For the same molecule, the AUC(0-t) (Sprague-Dawley (SD), oral, 63 mg/kg, 63 mg/kg daily for 7 consecutive days, Day 7, read-out: AUC0-t) was 127 µg·h/mL, the AUC(0-t) (Sprague-Dawley (SD), po, 21 mg/kg, oral 21 mg/kg, read-out: drug exposure (AUC0-t)) was 42.8 µg·h/mL and the Cmax (Sprague-Dawley (SD), po, 21 mg/kg, oral 21 mg/kg, read-out: maximum plasma concentration (Cmax)) was 18400 ng/mL. The AUC(0-t) (Sprague-Dawley (SD), po, 63 mg/kg, oral 63 mg/kg, read-out: drug exposure (AUC0-t)) was 112 µg·h/mL, the Cmax (Sprague-Dawley (SD), po, 63 mg/kg, oral 63 mg/kg, read-out: maximum plasma concentration (Cmax)) was 27400 ng/mL and the AUC(0-t) (Sprague-Dawley (SD), po, 189 mg/kg, oral 189 mg/kg, read-out: drug exposure (AUC0-t)) was 241 µg·h/mL. It also gave a Cmax (Sprague-Dawley (SD), po, 189 mg/kg, oral 189 mg/kg, read-out: maximum plasma concentration (Cmax)) of 51800 ng/mL, a C0 (Sprague-Dawley, Group 1 IV 2.0 mg/kg single, Female) of 8140 ± 820 ng/mL and a clearance (Sprague-Dawley, Group 1 IV 2.0 mg/kg single, Female, read-out: CL) of 5.66 ± 0.166 mL/min/kg. For the same molecule, the Vd (Sprague-Dawley, Group 1 IV 2.0 mg/kg single, Female, read-out: Vss) was 0.465 ± 0.122 L/kg, the C0 (Sprague-Dawley, Group 1 IV 2.0 mg/kg single, Male) was 7060 ± 699 ng/mL and the clearance (Sprague-Dawley, Group 1 IV 2.0 mg/kg single, Male, read-out: CL) was 6.56 mL/min/kg. For the same molecule, the Vd (Sprague-Dawley, Group 1 IV 2.0 mg/kg single, Male, read-out: Vss) was 0.445 L/kg, the C0 (both sexes, Sprague-Dawley, Group 1 IV 2.0 mg/kg single, Overall) was 7600 ± 905 ng/mL and the clearance (both sexes, Sprague-Dawley, Group 1 IV 2.0 mg/kg single, Overall, read-out: CL) was 6.02 ± 0.668 mL/min/kg. For the same molecule, the Vd (both sexes, Sprague-Dawley, Group 1 IV 2.0 mg/kg single, Overall, read-out: Vss) was 0.457 ± 0.088 L/kg, the AUC(0-t) (both sexes, Sprague-Dawley, iv, 2 mg/kg, Group 1 IV 2.0 mg/kg single, Overall, read-out: AUC0-t) was 5.36 ± 0.664 µg·h/mL and the half-life (both sexes, Sprague-Dawley, iv, 2 mg/kg, Group 1 IV 2.0 mg/kg single, Overall, read-out: T1/2 (converted)) was 3.39 ± 2.9 h. For the same molecule, the AUC(0-t) (both sexes, Sprague-Dawley, po, 21 mg/kg, Group 2 PO 21 mg/kg single, Overall, read-out: AUC0-t) was 42.8 ± 7.21 µg·h/mL, the Cmax (both sexes, Sprague-Dawley, po, 21 mg/kg, Group 2 PO 21 mg/kg single, Overall, read-out: Cmax) was 18400 ± 4040 ng/mL and the half-life (both sexes, Sprague-Dawley, po, 21 mg/kg, Group 2 PO 21 mg/kg single, Overall, read-out: T1/2 (converted)) was 3.47 ± 0.596 h. For the same molecule, the Tmax (both sexes, Sprague-Dawley, po, 21 mg/kg, Group 2 PO 21 mg/kg single, Overall) was 0.5 h, the AUC(0-t) (both sexes, Sprague-Dawley, po, 63 mg/kg, Group 3 PO 63 mg/kg single, Overall, read-out: AUC0-t) was 112 ± 37.2 µg·h/mL and the Cmax (both sexes, Sprague-Dawley, po, 63 mg/kg, Group 3 PO 63 mg/kg single, Overall, read-out: Cmax) was 27400 ± 7200 ng/mL. The half-life (both sexes, Sprague-Dawley, po, 63 mg/kg, Group 3 PO 63 mg/kg single, Overall, read-out: T1/2 (converted)) was 3.01 ± 0.63 h, the Tmax (both sexes, Sprague-Dawley, po, 63 mg/kg, Group 3 PO 63 mg/kg single, Overall) was 1 h and the AUC(0-t) (both sexes, Sprague-Dawley, po, 63 mg/kg, Group 5 PO 63 mg/kg repeated, Day 1, Overall, read-out: AUC0-t) was 111 ± 42.1 µg·h/mL. For the same molecule, the Cmax (both sexes, Sprague-Dawley, po, 63 mg/kg, Group 5 PO 63 mg/kg repeated, Day 1, Overall, read-out: Cmax) was 28800 ± 11400 ng/mL, the half-life (both sexes, Sprague-Dawley, po, 63 mg/kg, Group 5 PO 63 mg/kg repeated, Day 1, Overall, read-out: T1/2 (converted)) was 3.33 ± 1.68 h and the Tmax (both sexes, Sprague-Dawley, po, 63 mg/kg, Group 5 PO 63 mg/kg repeated, Day 1, Overall) was 2 h.
